Measured values reported in US6420535B1, “6-O-carbamate ketolide derivatives” (Abbott Laboratories, priority 1999, dated 2002).
Values after ≈ are worked out from the molar mass of the structure shown.

Tests used:
Type in all cases: cell-based
[1] = tested on: Candida albicans CCH 442; test: In vitro antibacterial MIC, agar dilution (BHI agar); details: 35-37° C., 20 to 24 hours, unit assumed
Procedure: (§1) Representative compounds of the present invention were assayed in vitro for antibacterial activity as follows: Twelve petri dishes containing successive aqueous dilutions of the test compound mixed with 10 mL of sterilized Brain Heart Infusion (BHI) agar (Difco 0418-01-5) were prepared. Each plate was inoculated with 1:100 (or 1:10 for slow-growing strains, such as Micrococcus and Streptococcus) dilutions of up to 32 different microorganisms, using a Steers replicator block. The inoculated plates were incubated at 35-37° C. for 20 to 24 hours. In addition, a control plate, using BHI agar containing no test compound, was prepared and incubated at the beginning and end of each test.
(§2) An additional plate containing a compound having known susceptibility patterns for the organisms being tested and belonging to the same antibiotic class as the test compound was also prepared and incubated as a further control, as well as to provide test-to-test comparability. Erythromycin A was used for this purpose.
(§3) After incubation, each plate was visually inspected. The minimum inhibitory concentration (MIC) was defined as the lowest concentration of drug yielding no growth, a slight haze, or sparsely isolated colonies on the innoculum spot as compared to the growth control. The results of this assay, which relate to the antibacterial activity of the compounds of the invention, are reported below in Table 1.

[2] = tested on: Escherichia coli JUHL; test: as above; details: 35-37° C., 20 to 24 hours, unit assumed
Procedure: as §1, §2, §3

[3] = tested on: Escherichia coli SS; test: as above; details: 35-37° C., 20 to 24 hours, unit assumed
Procedure: as §1, §2, §3

[4] = tested on: Micrococcus luteus ATCC 4698; test: as above; details: 35-37° C., 20 to 24 hours, unit assumed
Procedure: as §1, §2, §3

[5] = tested on: Micrococcus luteus ATCC 9341; test: as above; details: 35-37° C., 20 to 24 hours, unit assumed
Procedure: as §1, §2, §3

[6] = tested on: Mycobacterium smegmatis ATCC 114; test: as above; details: 35-37° C., 20 to 24 hours, unit assumed
Procedure: as §1, §2, §3

[7] = tested on: Nocardia asteroides ATCC997O; test: as above; details: 35-37° C., 20 to 24 hours, unit assumed
Procedure: as §1, §2, §3

[8] = tested on: Staphylococcus aureus 1775; test: as above; details: 35-37° C., 20 to 24 hours, unit assumed
Procedure: as §1, §2, §3

[9] = tested on: Staphylococcus aureus A-5278; test: as above; details: 35-37° C., 20 to 24 hours, unit assumed
Procedure: as §1, §2, §3

[10] = tested on: Staphylococcus aureus A5177; test: as above; details: 35-37° C., 20 to 24 hours, unit assumed
Procedure: as §1, §2, §3

[11] = tested on: Staphylococcus aureus ATCC 6538P; test: as above; details: 35-37° C., 20 to 24 hours, unit assumed
Procedure: as §1, §2, §3

[12] = tested on: Staphylococcus aureus CMX 553; test: as above; details: 35-37° C., 20 to 24 hours, unit assumed
Procedure: as §1, §2, §3

[13] = tested on: Staphylococcus aureus CMX 642A; test: as above; details: 35-37° C., 20 to 24 hours, unit assumed
Procedure: as §1, §2, §3

[14] = tested on: Staphylococcus aureus NCTC10649M; test: as above; details: 35-37° C., 20 to 24 hours, unit assumed
Procedure: as §1, §2, §3

[15] = tested on: Staphylococcus epidermidis 3519; test: as above; details: 35-37° C., 20 to 24 hours, unit assumed
Procedure: as §1, §2, §3

[16] = tested on: Streptococcus agalactiae CMX 508; test: as above; details: 35-37° C., 20 to 24 hours, unit assumed
Procedure: as §1, §2, §3

[17] = tested on: Streptococcus bovis A-5169; test: as above; details: 35-37° C., 20 to 24 hours, unit assumed
Procedure: as §1, §2, §3

[18] = tested on: Streptococcus pyogenes 930; test: as above; details: 35-37° C., 20 to 24 hours, unit assumed
Procedure: as §1, §2, §3

[19] = tested on: Streptococcus pyogenes EES61; test: as above; details: 35-37° C., 20 to 24 hours, unit assumed
Procedure: as §1, §2, §3

[20] = tested on: Streptococcus pyogenes PIU 2548; test: as above; details: 35-37° C., 20 to 24 hours, unit assumed
Procedure: as §1, §2, §3

[21] = tested on: Escherichia coli DC-2; test: as above; details: 35-37° C., 20 to 24 hours, unit assumed
Procedure: as §1
(§4) An additional plate containing a compound having known susceptibility patterns for the organisms being tested and belonging to the same antibiotic class as the test compound was also prepared and incubated as a further control, as well as to provide test-to-test comparability.
(§5) After incubation, each plate was visually inspected. The minimum inhibitory concentration (MIC) was defined as the lowest concentration of drug yielding no growth, a slight haze, or sparsely isolated colonies on the innoculum spot as compared to the growth control.

[22] = tested on: Haemophilis influenzae DILL AMP R; test: Separate in vitro antibacterial assay (H. Influenza / S. Pneumonia); details: protocol as for Table 1, unit assumed
Procedure: as §1, §2, §3
(§6) In a separate assay representative compounds of the invention were assayed in vitro for antibacterial activity against H. Influenza Dill AMP R strain and S. Pneumonia, according to the protocol described above. The results of this assay, which relate to the antibacterial activity of compounds of the invention against the H. Influenza Dill AMP R and S. Pneumonia organisms, are shown below in Table 2.

[23] = tested on: Streptococcus pneumonia 5649; test: as above; details: protocol as for Table 1, unit assumed
Procedure: as §1, §2, §3, §6

[24] = tested on: Streptococcus pneumonia ATCC63O3; test: as above; details: protocol as for Table 1, unit assumed
Procedure: as §1, §2, §3, §6

[25] = tested on: Streptococcus pneumonia GYR 1171; test: as above; details: protocol as for Table 1, unit assumed
Procedure: as §1, §2, §3, §6

[26] = tested on: Streptococcus pneumonia 5979; test: as above; details: protocol as for Table 1, unit assumed
Procedure: as §1, §4, §5

With `CC[C@H]1OC(=O)[C@H](C)[C@@H](O[C@H]2C[C@@](C)(OC)[C@@H](O)[C@H](C)O2)[C@H](C)[C@@H](O[C@@H]2O[C@H](C)C[C@H](N(C)C)[C@H]2O)[C@](C)(O)C[C@@H](C)C(=O)[C@H](C)[C@@H](O)[C@]1(C)O` [Ery. A, Erythromycin A, reference compound] the MIC [1] was > 100 µg/mL, the MIC [2] was > 100 µg/mL and the MIC [3] was 0.78 µg/mL (≈ 1.06 µM). For the same molecule, the MIC [4] was 0.2 µg/mL (≈ 0.273 µM), the MIC [5] was 0.05 µg/mL (≈ 0.0681 µM) and the MIC [6] was 3.1 µg/mL (≈ 4.22 µM). The MIC [7] was 0.1 µg/mL (≈ 0.136 µM), the MIC [8] was > 100 µg/mL and the MIC [9] was > 100 µg/mL. It also gave an MIC [10] of 3.1 µg/mL (≈ 4.22 µM), an MIC [11] of 0.2 µg/mL (≈ 0.273 µM) and an MIC [12] of 0.39 µg/mL (≈ 0.531 µM). The MIC [13] was 0.39 µg/mL (≈ 0.531 µM), the MIC [14] was 0.39 µg/mL (≈ 0.531 µM) and the MIC [15] was 0.39 µg/mL (≈ 0.531 µM). The MIC [16] was 0.05 µg/mL (≈ 0.0681 µM), the MIC [17] was 0.02 µg/mL (≈ 0.0273 µM) and the MIC [18] was > 100 µg/mL. The MIC [19] was 0.05 µg/mL (≈ 0.0681 µM), the MIC [20] was 6.2 µg/mL (≈ 8.45 µM) and the MIC [21] was > 100 µg/mL. The MIC (antibacterial activity, Table 2) [22] was 4 µg/mL (≈ 5.45 µM), the MIC (antibacterial activity, Table 2) [23] was 16 µg/mL (≈ 21.8 µM) and the MIC (antibacterial activity, Table 2) [24] was 0.06 µg/mL (≈ 0.0818 µM). For the same molecule, the MIC (antibacterial activity, Table 2) [25] was 0.06 µg/mL (≈ 0.0818 µM).

With `CCC1OC(=O)C(C)C(=O)C(C)C(OC2OC(C)CC(N(C)C)C2O)C(C)(OC(=O)NC(=O)c2ccccc2)CC(C)C(=NO)C(C)C2OC(=O)OC12C` (centres unmarked) [Ex. 1, Compound of Formula (IV-A): wherein A is —O—; X is N—OH; —M— is Absent, R^2 is Phenyl; and R^p is Hydrogen] the MIC [1] was > 100 µg/mL, the MIC [2] was 50 µg/mL and the MIC [3] was 0.39 µg/mL. For the same molecule, the MIC [4] was 0.39 µg/mL, the MIC [6] was 50 µg/mL and the MIC [7] was 0.78 µg/mL. The MIC [8] was > 100 µg/mL, the MIC [9] was > 100 µg/mL and the MIC [10] was 0.39 µg/mL. It also gave an MIC [11] of 0.39 µg/mL, an MIC [14] of 0.39 µg/mL and an MIC [15] of 0.39 µg/mL. For the same molecule, the MIC [16] was 0.02 µg/mL, the MIC [17] was 0.02 µg/mL and the MIC [18] was > 100 µg/mL. The MIC [19] was 0.02 µg/mL, the MIC [20] was 1.56 µg/mL and the MIC [21] was 100 µg/mL. The MIC (antibacterial activity, Table 2) [22] was 8 µg/mL, the MIC (antibacterial activity, Table 2) [23] was 2 µg/mL and the MIC (antibacterial activity, Table 2) [24] was 0.03 µg/mL. For the same molecule, the MIC (antibacterial activity, Table 2) [25] was 0.03 µg/mL and the MIC (antibacterial activity, Table 2) [26] was > 64 µg/mL.

With `CCC1OC(=O)C(C)C(=O)C(C)C(OC2OC(C)CC(N(C)C)C2O)C(C)(OC(N)=O)CC(C)C(=NO)C(C)C2OC(=O)OC12C` (centres unmarked) [Ex. 2, Compound of Formula (II-A), wherein A is —O—; X is N—OH; —M— is Absent; R^2 is Hydrogen, and R^p is Hydrogen] the MIC [1] was > 100 µg/mL, the MIC [2] was > 100 µg/mL and the MIC [3] was 1.56 µg/mL. For the same molecule, the MIC [4] was 1.56 µg/mL, the MIC [6] was 50 µg/mL and the MIC [7] was 6.2 µg/mL. For the same molecule, the MIC [8] was > 100 µg/mL, the MIC [9] was > 100 µg/mL and the MIC [10] was 3.1 µg/mL. The MIC [11] was 1.56 µg/mL, the MIC [14] was 1.56 µg/mL and the MIC [15] was 1.56 µg/mL. For the same molecule, the MIC [16] was 0.39 µg/mL, the MIC [17] was 0.2 µg/mL and the MIC [18] was > 100 µg/mL. For the same molecule, the MIC [19] was 0.39 µg/mL, the MIC [20] was 3.1 µg/mL and the MIC [21] was > 100 µg/mL. It also gave an MIC (antibacterial activity, Table 2) [22] of 8 µg/mL, an MIC (antibacterial activity, Table 2) [23] of 8 µg/mL and an MIC (antibacterial activity, Table 2) [24] of 0.25 µg/mL. For the same molecule, the MIC (antibacterial activity, Table 2) [25] was 0.25 µg/mL and the MIC (antibacterial activity, Table 2) [26] was > 128 µg/mL.
